Source: US20120294886A1, “PEPTIDE CONJUGATES FOR SUPPRESSING AN IMMUNE RESPONSE, METHODS OF MAKING AND USES THEREFOR” (The University of Queensland, priority 2011, published 2012)

Experiments:
MHC class I molecules = assay: Colocalisation of peptide with MHC class I in macrophages, confocal microscopy (Example 3); format: cell-based, mouse; details: FIG. 5
Experimental: (§1) For confocal microscopy, macrophages were isolated from normal 8-12-wk old female SJL/J mice peritoneal cell suspensions by adhesion to glass coverslips. The macrophages were then incubated with 100 μM peptide for between 1 min and 24 h at 37° C., the peptide being one of:
(§2) After incubation, cells were fixed with 4% formaldehyde in PBS for 15 min at room temperature and permeabilised with 0.05% digitonin in PBS for 5 min at room temperature or 0.2% Triton X-100 in PBS for 20 min at room temperature.
(§3) The cells were then incubated with murine antibodies against endosomes, lysosomes, endoplasmic reticulum, or MHC class I or II molecules for 1-3 hours at 37° C. After three washes in PBS, cells were incubated with streptavidin-Alexa 488 (1/400 dilution in PBS) or streptavidin-Cy3 (1/450 dilution in PBS) (both from Molecular Probes) and Texas Red-labeled rabbit anti-mouse IgG or IgM for 30 min in the dark at room temperature. After washing with PBS, coverslips were mounted in Aquapolymount medium. Immunofluorescence staining was monitored with a laser scanning microscope (LSM 510; Carl Zeiss Laboratories) equipped with a Plan-Apochromat 63× oil DIC immersion lens (numerical aperture 1.4). […] Quantification of colocalisation was performed on cells from 10 to 12 fields (at least 100 cells) with the colocalisation module of the Zeiss LSM Image Browser software.

[1] = tested on: endoplasmic reticulum (ER); assay: Colocalisation of peptide with endoplasmic reticulum in macrophages, confocal microscopy (Example 3); format: cell-based, mouse; details: 30 or 60 minutes incubation, FIG. 4
Experimental: as §1, §2, §3

lysosomes = assay: Colocalisation of peptide with lysosomes in macrophages, confocal microscopy (Example 3); format: cell-based, mouse; details: FIG. 3
Experimental: as §1, §2, §3

MHC class II molecules = assay: Colocalisation of peptide with MHC class II in macrophages, confocal microscopy (Example 3); format: cell-based, mouse; details: FIG. 5
Experimental: as §1, §2, §3

endosomes = assay: Colocalisation of peptide with endosomes in macrophages, confocal microscopy (Example 3); format: cell-based, mouse; details: FIG. 3
Experimental: as §1, §2, §3

SJL/J mouse [2] = assay: EAE induction by F188, co-immunisation with A188 or S-palm A188 (Example 5); format: in vivo
Experimental: (§4) One mg per mL of F188 peptide, either alone or together with A188 peptide or S-palm A188 peptide at different molar ratios, was emulsified in an equal volume of complete Freund's adjuvant containing an additional 4 mg/ml Mycobacterium tuberculosis H37Ra. 200 μl of the emulsion (i.e. 100 μg F188) was then injected subcutaneously in a single site on the back of each SJL/J mouse. Each mouse also received 300 ng pertussis toxin intravenously on the same day as the peptide emulsion and then 3 days later.
(§5) The mice were inspected and weighed daily and scored for disease using a 5 point severity scale: 0=no disease; 1=decreased tail tone; 2=no tail tone; 3=hind limb weakness; 4=hind limb paralysis; 5=moribund.

SJL/J mice [3] = assay: Therapeutic treatment of established S-palm-PLP178-191-induced EAE (Example 7); format: in vivo, mouse; details: 100 μL of 1 mg/mL in PBS s.c. at score 2.0 or 2.5, followed for 7 days, versus PBS, FIG. 6
Experimental: SJL/J mice were injected subcutaneously with 100 μg S-palm-F188 (S-palm-PLP178-191), i.e. 100 μl of a 1 mg/ml solution emulsified in an equal volume (i.e. 100 μl Complete Freund's Adjuvant containing an extra 4 mg/mL Mycobacterium tuberculosis H37Ra. Each mouse also received 300 ng pertussis toxin intravenously on the same day as the peptide emulsion and then 3 days later.
The mice were then inspected and scored for disease using a 5 point severity scale: 0=no disease; 1=decreased tail tone; 2=no tail tone; 3=hind limb weakness; 4=hind limb paralysis; 5=moribund.
When the mice reached a score between 2.0 or 2.5, each mouse was injected subcutaneously with 100 μL PBS (n=6), 100 μL of 1 mg/mL A188 in PBS (n=6), or 100 μL of 1 mg/mL S-palm-A188 in PBS (n=7).
Mice were then followed for 7 days, and scored each day.

SJL/J mice [4] = assay: Induction of EAE by immunisation with peptide in complete Freund's adjuvant (Example 2); format: in vivo, mouse; details: for Incidence / Day of Onset: EAE; for Incidence / Score / Day of Onset: mice immunised with the peptide in CFA; for Incidence: followed for 6 weeks; for Score: clinical score of EAE; for Duration: duration of the first episode of disease
Experimental: In examples 2 and 4-8, PLP encephalitogenic epitopes were injected into SJL/J mice to induce EAE, so the mice could be used as an animal model for MS. Such a model has been used in numerous studies, including where preventative or treatment methods for MS are being investigated. The study described in Hofstetter et al., 2007, for example, describes the induction of EAE in SJL mice at pages 1373-1374.
Mice were immunised with the above non-palmitoylated, S-palmitoylated or N-palmitoylated peptides in complete Freund's adjuvant to induce EAE.
(1) Mice were followed for 6 weeks to determine the induction of EAE.

lymph node cells (LNC) = assay: CD4/CD8 ratio of activated LNC by flow cytometry (Example 2); format: cell-based, mouse; details: activated LNC from immunised mice, 4 per group
Experimental: Lymph nodes from a different group of mice immunised in the same manner were removed 10 days after injection of the peptides and single cell suspensions of lymph node cells (LNC) were prepared.
(3) Other LNC were incubated with antibodies against CD4 or CD8, and the ratio of CD4 to CD8 was determined using flow cytometric techniques. LNC were centrifuged through a Ficoll gradient and washed with PBS containing 1% FCS and 0.01% sodium azide (wash buffer). Aliquots of 1 million cells were incubated with antibodies specific for CD4 (clone RM4-5; rat IgG2a) or CD8a (clone 53-6.7; rat IgG2a) together with an antibody specific for the TCR β-chain (H57-597; hamster IgG) for 30 min at 4° C. in the dark, followed by FITC-conjugate anti-rat κ-chain or PE-conjugated anti-hamster IgG for 30 min at 4° C. in the dark. Isotype-matched primary antibodies were used as controls. All antibodies were purchased from PharMingen (San Diego, Calif.) and were used at 1 μg/ml dilution in wash buffer. After washing, cells were resuspended in wash buffer and analysed using a FACSCalibur flow cytometer (Becton Dickinson, Franklin Lakes, N.J.).

SJL/J mouse [5] = assay: EAE induction by W144, co-immunisation with Q144 or S-palm Q144 (Example 4); format: in vivo
Experimental: as §4, with “W144” for “F188”, “Q144” for “A188”, “W144)” for “F188)”
as §5

[6] = EAE, 100 μg W144 alone in CFA s.c.

| Substance | Colocalisation with MHC class I (MHC class I molecules) | Colocalisation with endoplasmic reticulum (ER) [1] | Colocalisation with lysosomes (lysosomes) | Colocalisation with endosomes (endosomes) | Incidence (SJL/J mice [4]) | Score (SJL/J mice [4]) | CD4/CD8 Ratio (mean ± SEM) (lymph node cells (LNC)) | Day of Onset (SJL/J mice [4]) | Duration (SJL/J mice [4]) | also measured |
| --- | --- | --- | --- | --- | --- | --- | --- | --- | --- | --- |
| PLP139-151 Cys140-Palm Lys150-Biot (S-palm) (HCLGKWLGHPDKF) [S-palm peptide] | only a small percentage | but not S-palm peptide colocalised strongly | colocalised strongly with lysosomes | colocalised rapidly and strongly with endosomes | – | – | – | – | – | Colocalisation with MHC class II (MHC class II molecules): colocalised strongly with MHC class II |
| H2N-NTWTTCQSIAAPSK-CO2H (H-NTWTTCQSIAAPSK-OH) [A188] | – | – | – | – | – | – | – | – | – | Protective effect on EAE (in words) (SJL/J mouse [2]; injected at a dose 5 times greater than the encephalitogenic peptide F188): protective; Mean EAE score after treatment (SJL/J mice [3]): intermediate between the control group and the S-palm-A188-treated group |
| PLP139-151 His139-Palm Lys150-Biot (N-palm) (HCLGKWLGHPDKF) [N-palm peptide] | colocalised strongly with MHC class I | colocalised strongly with endoplasmic reticulum (ER) | did not colocalise strongly with lysosomes in most cells | did not colocalise strongly with endosomes in most cells | – | – | – | – | – | – |
| H2N-KTTICGKGLSATVT-CO2H (H-KTTICGKGLSATVT-OH) [PLP104-117] | – | – | – | – | 0/4 | 0 | 2.31 ± 0.07 | – | – | – |
| H2N-HCLGKWLGHPDKF-CO2H (H-HCLGKWLGHPDKF-OH) [PLP139-151] | – | – | – | – | 4/4 | 3.0 ± 0.7 | 2.18 ± 0.19 | 11.0 ± 1.4 days | 5.8 ± 1.8 | Incidence (SJL/J mouse [5]; [6]): 4/4; Mean day of onset (SJL/J mouse [5]; [6]): 11.5 days; Mean severity (SJL/J mouse [5]; mean maximum severity of mice that developed EAE, 5 point scale, W144 alone): 4.3 |
| H2N-NTWTTCQSIAFPSK-CO2H (H-NTWTTCQSIAFPSK-OH) [PLP178-191] | – | – | – | – | 5/5 | 2.7 ± 0.9 | – | 13.0 ± 1.5 days | 5.8 ± 0.4 | Mean severity (SJL/J mouse [2]; 5 point scale, F188 alone): 2.8 ± 0.3; Incidence (SJL/J mouse [2]; EAE, 100 μg F188 alone in CFA s.c.): 8/8; Mean day of onset (SJL/J mouse [2]; EAE, F188 alone): 11.3 ± 0.5 days |
